Test results published in patent US20260262647A1, “Synergistic Compositions Containing Guanidine” (Thor GmbH, priority 2023, published 2026).

Legend:
Assay type in all cases: cell-based
bacteria mixture A = experiment: Emulsion paint inoculated three times with bacteria mixture A, live bacteria count CFU/g; details: for CFU/g after inoculation: emulsion paint, 7 d
Excerpt: In example 34, the synergistic interaction between guanidine and a zinc compound (zinc oxide) with respect to microbial infestation was examined in an emulsion paint by adding particular amounts of guanidine in the form of guanidine hydrochloride and a zinc compound in the form of zinc oxide, and tested for stability to microbial infestation. The paint tested was an emulsion paint based on styrene-acrylate binder (PVK 77%, pH 8.8) for indoor use, produced in the laboratory, without addition of the usual preservatives.
The samples were inoculated repeatedly, three times in total, with a bacterial cell suspension of the following composition (2% v/w).
• Alcaligenes faecalis NCIMB 13145 • Escherichia coli DSM 13631 • Burkholderia cepacia DSM 9241 • Staphylococcus aureus DSM 799 • Pseudomonas aeruginosa DSM 50071 • Pseudomonas putida DSM 13624
The cell suspension of the bacteria mixture A was produced by growing the individual bacteria at 30° C. for 24 h in liquid culture on a shaker. The growth medium used for the bacteria was Müller-Hinton liquid medium. After growing, the individual liquid cultures were centrifuged, and the cells were resuspended in physiological saline solution. In order to adjust the mixture to a total cell count of 10^9/ml, the individual bacteria suspensions, if necessary, were diluted accordingly before being combined with saline solution. The cell count of the inoculum was determined in each case by chamber counting.
After each inoculation and after incubation at 30° C. for 7 days, microbial infestation was evaluated in the samples by determining the live bacteria count per g of paint (colony-forming units, CFU/g). The CFU/g was determined each time by taking an aliquot (1 g) from the previously homogenized sample and running a serial decadic dilution series in physiological saline solution (0.9% NaCl) by streaking on tryptic soy agar, followed by incubation of the agar plates at 30° C. for 48 h.

yeast mixture [1] = experiment: Laundry detergent inoculated once with yeast mixture, semiquantitative growth evaluation; design: key: 0: No growth; Minimal growth, 1 to 10 colonies visible over the entire streak; 2: Light growth, maximum 100 colonies; Moderate growth, maximum 300 to 400 colonies; Uniform growth, >400 colonies, single colonies still clearly recognizable; 5: Heavy growth, too many colonies to count, but no growth over the entire streak; 6: Full growth, barely any single colonies still apparent, growth over the entire streak; details: Example 37, laundry detergent, +8000 ppm guanidine hydrochloride (4944 ppm guanidine)
Excerpt: (§1) In examples 35 to 38 below, synergistic interaction between guanidine and antimicrobial substances with respect to microbial infestation was studied using an emulsion paint and a laundry detergent or cleaning composition by adding particular amounts of guanidine salts and isothiazolinones and examining their stability against microbial infestation: […] The laundry detergent was a heavy-duty laundry detergent without preservatives (pH 8.1), and the cleaning composition was an all-purpose detergent without preservatives (pH 7.6), each likewise made in the laboratory, without addition of the otherwise usual conventional preservatives. To each paint was added—individually and in combination—particular concentrations of guanidinium hydrochloride, benzisothiazolinone (BIT), and a mixture of chloromethylisothiazolinone (CIT) and methylisothiazolinone (MIT). The laundry detergent and the cleaning composition were admixed with particular concentrations of guanidinium hydrochloride and benzisothiazolinone (BIT). The resultant batches of the paint thus prepared were inoculated with a mixture of different bacteria species (bacteria mixture B); the batches of the laundry detergent and cleaning compositions thus prepared were inoculated with a yeast mixture. • Pichia manshurica DSM 12249 • Rhodotorula mucilaginosa DSM 12248 • Candida boidinii DSM 13622 • Candida albicans DSM 1386 […] Further steps for establishment of a cell count of the inoculum suspension of 10^8/ml were effected analogously to the production of the bacteria suspension. […] The streaked agar plates were then incubated at 30° C. for 48 hours (bacteria) or at 25° C. for 72 hours (yeasts). After incubation, the bacterial or yeast colonies that have grown on the agar plates were visually evaluated and quantified according to the following scheme: [table]

[2] = system: Pseudomonas putida DSM 115323; experiment: Minimum inhibitory concentrations and synergy index in Müller-Hinton broth
Method: Test organisms used were Gram-negative bacterial species from the group of pseudomonads, Pseudomonas putida DSM 115323 and Pseudomonas spec. DSM 115322. For this purpose, mixtures with different concentrations of the respective active substances were prepared and tested for their effect on the pseudomonads. The test was run in Müller-Hinton broth MHB with a cell density of 10^6 microbes per ml. When organic acids are used as a combination partner with the guanidine, MHB was adjusted to pH 5.5.
The incubation was run in microplates at 30° C. for 48 hours. After 48 hours, the batches were evaluated for turbidity resulting from growth, and optical density was additionally determined photometrically. In this way, the minimum inhibitory concentrations (MICs) of the two actives were determined individually and in combination.
The calculation was done according to the standard method of F. C. Kull et al., Applied Microbiology, vol. 9 (1961), p. 538.
This involves calculating the synergy index (SI) by the following formula:
[formula] • Qa=concentration of component A in the A+B mixture • QA=concentration of component A as the sole biocide • Qb=concentration of component B in the A+B mixture • QB=concentration of component B as the sole biocide
If the synergy index is greater than 1, this means that there is antagonism. If the synergy index assumes the value 1, this means that the effect of the two biocides/compounds is additive. If the synergy index assumes a value of less than 1, this means that there is synergism between the two biocides/compounds.

yeast mixture [3] = experiment: All-purpose detergent inoculated once with yeast mixture, semiquantitative growth evaluation; design: key: 0: No growth; Minimal growth, 1 to 10 colonies visible over the entire streak; 2: Light growth, maximum 100 colonies; Moderate growth, maximum 300 to 400 colonies; Uniform growth, >400 colonies, single colonies still clearly recognizable; 5: Heavy growth, too many colonies to count, but no growth over the entire streak; 6: Full growth, barely any single colonies still apparent, growth over the entire streak; details: Example 38, all-purpose detergent, +8000 ppm guanidine hydrochloride (4944 ppm guanidine)
Excerpt: as §1

In the case of `N=C(N)N` [guanidine], the CFU/g after inoculation (bacteria mixture A; Guanidine hydrochloride 1000 ppm (618 ppm guanidine), 1. inoculation) is reported as 8.7 × 10^5 CFU/g, the CFU/g after inoculation (bacteria mixture A; Guanidine hydrochloride 1000 ppm (618 ppm guanidine), 2. inoculation) is reported as >10^6 CFU/g and the CFU/g after inoculation (bacteria mixture A; Guanidine hydrochloride 1000 ppm (618 ppm guanidine), 3. inoculation) is reported as >10^6 CFU/g. For the same molecule, the CFU/g after inoculation (bacteria mixture A; Guanidine hydrochloride 2500 ppm (1545 ppm guanidine), 1. inoculation) was less than 100 CFU/g, the CFU/g after inoculation (bacteria mixture A; Guanidine hydrochloride 2500 ppm (1545 ppm guanidine), 2. inoculation) was less than 100 CFU/g and the CFU/g after inoculation (bacteria mixture A; Guanidine hydrochloride 2500 ppm (1545 ppm guanidine), 3. inoculation) was >10^6 CFU/g. It also gave a CFU/g after inoculation (bacteria mixture A; Guanidine hydrochloride 5000 ppm (3090 ppm guanidine), 1. inoculation) of less than 100 CFU/g, a CFU/g after inoculation (bacteria mixture A; Guanidine hydrochloride 5000 ppm (3090 ppm guanidine), 2. inoculation) of less than 100 CFU/g and a CFU/g after inoculation (bacteria mixture A; Guanidine hydrochloride 5000 ppm (3090 ppm guanidine), 3. inoculation) of less than 100 CFU/g. The “QA: Concentration of guanidine as the sole agent that shows an endpoint” value (bacteria mixture A; guanidine alone in emulsion paint, endpoint after 3 inoculations up to a maximum of 1000 CFU/g) was 3090 ppm, the “Synergy index Qa/QA + Qb/QB” value (bacteria mixture A; guanidine and zinc in emulsion paint, Qa, Qb) was 1.00 and the Bacterial growth (yeast mixture [1]; Day 1) was 6. For the same molecule, the Bacterial growth (yeast mixture [1]; Day 3) was 6, the “QA: Concentration of guanidine as the sole agent that shows an endpoint” value ([2]; guanidine (added as guanidine hydrochloride) alone, 48 hours at 30° C.) was 6180 ppm and the “Synergy index Qa/QA + Qb/QB” value ([2]; guanidine and CIT, Qa, Qb) was 1.00. The Yeast growth (yeast mixture [3]; Day 1) was 6 and the Yeast growth (yeast mixture [3]; Day 3) was 4 (Uniform growth, >400 colonies, single colonies still clearly recognizable).
